{"source": "patent US20230022705A1", "about": "“Topical Delivery System Containing Cellulose Nanofibers” (ELC Management LLC, priority 2019, published 2023)", "system": "MatTek 300 skin (a skin model constructed from live cells)", "assay": "Penetration study using MatTek skin, formulation with vs without cellulose nanofibers, UPLC analysis", "assay_type": "in vitro ADME", "method": "A testing formulation with and without nanocellulose and various skin care actives was prepared. The formulation was prepared by mixing the Phase I components until all of the solids were dissolved (e.g., about 10-15 min). The Phase 2 components were added to the Phase 1 components and mixed until lump free (e.g., about 10 min). The Phase 3 components were pre-mixed until lump free and slowly added to the initial mixture and mixed until uniform (e.g., about 30 min). The Phase 4 components were mixed until uniform and slowly added to the initial mixture and mixed to uniformity (e.g., about 15-20 min). The Phase 5 components were premixed and then added to the mixture and mixed until uniform (e.g., about 15-20 min). The Phase 6 components were added to the mixture under Silverson to adjust the pH to about 5.5 to 6.5 to increase the stability of the AA2G and mixed until lump free (e.g., about 15-20 min). A penetration study was then performed using the base formula without nanocellulose as a control. […] In a 6-well plate, MatTek 300 skin (a skin model constructed from live cells, obtained from MatTek) was placed in the well with 2.00 mL of incubation medium (also provided by MatTek). The medium was removed, and 2.0 mL of phosphate buffer saline/propandiol (PBS/PPD) 1:1 mixture was added. The PBS/PPD mixture was then removed. This washing process was repeated twice. Then 2.0 mL of the PBS/PPD mixture was added as the collection phase. To the top of each skin, 400 μl of a sample was loaded. The skin was then incubated at 37° C. for 72 hours. Finally, the PBS/PPD collection phase was filtered through 0.45 μm PTFE syringe filter into high performance liquid chromatography (HPLC) vials. Waters ACQUITY H ultra-performance liquid chromatography (UPLC) was used to analyze the collected samples from the penetration study.", "note": "Read-outs that look alike come from different tables or passages of the source."}
{"smiles": "OCCOc1ccccc1", "note": "[phenoxyethanol]", "values": [{"measurement": "penetration efficacy, composition with nanocellulose vs without (in words)", "result": "not increased"}]}
{"smiles": "O=C1O[C@H]([C@@H](O)CO)C(O)=C1O[C@H]1O[C@H](CO)[C@@H](O)[C@H](O)[C@H]1O", "note": "[AA2G, ascorbic acid 2-glucoside]", "values": [{"measurement": "penetration efficacy, formulation with cellulose nanofibers vs without (in words)", "result": "significantly enhanced"}]}
{"smiles": "O=C(c1ccccc1)c1ccccc1", "note": "[benzophenone]", "values": [{"measurement": "penetration efficacy, composition with nanocellulose vs without (in words)", "setting": "benzophenone 4% (w/w of the total composition), sunscreen formulations", "result": "directionally reduced"}]}
{"smiles": "COc1ccc(CCCc2ccc(O)cc2O)c(OC)c1C", "note": "[UP302]", "values": [{"measurement": "penetration efficacy, formulation with cellulose nanofibers vs without (in words)", "setting": "MatTek 300 skin, 37° C., 72 hours, PBS/PPD collection phase", "result": "modulated, reduced, and limited"}]}
{"smiles": "CC1=C(/C=C/C(C)=C/C=C/C(C)=C/CO)C(C)(C)CCC1", "note": "[Retinol, reference compound]", "values": [{"measurement": "penetration within the skin, composition with nanocellulose vs without (in words)", "result": "reduced"}, {"measurement": "rate of release from composition with nanocellulose (in words)", "result": "slower rate of release"}]}
